Source: patent US20250319052A1, “TREATMENT WITH HIGHLY PURIFIED EICOSAPENT AENOIC ACID AS FREE FATTY ACID IMPROVES INFLAMMATION, AFFECTS COLONIC DIFFERENTIATION MARKERS AND MICROBIOTA IN PATIENTS WITH ULCERATIVE COLITIS” (KD SWISS GMBH, priority 2019, published 2025)

Assay: Membrane fatty acid analysis in red blood cells (GC-MS) of UC patients given EPA-FFA
Type: in vivo, human
Experimental: A study will be conducted with patients having long-standing UC. Specifically, about 20 long-standing UC patients in stable clinical remission (SCCAI=0) and with fecal calprotectin (FC)>150 μg/g measured in stools are recruited and treated with 2 g/day of EPA-FFA for 90 days. Biopsies and biological samples are collected at the entry (TO) and at the end of the study (T3). Compliance is evaluated by EPA incorporation into red blood cell membranes. Protein levels of Jagged1, Hes1, STAT3, phospho-STAT3 and KLF-4 are determined by western blotting. IL-22, IL-10 and SOCS3 mRNA levels are analyzed by qRT-PCR. Goblet cells are stained by Alcian blue. Microbiota analyses are performed on fecal and biopsies DNA samples sequencing the V3-V4 region of the bacterial 16S rRNA gene. As a reference, a healthy adult population is used. Endoscopic and histologic disease activities are measured by Mayo and Geboes scores respectively.
Since EPA can be converted into the m-3 PUFA docosahexaenoic acid (DHA) in vivo through docosapentaenoic acid (DPA) (19), the overall ω-3 PUFAs content is also measured including EPA, DPA and DHA, in the patients.
Eligible patients are asymptomatic subjects aged 18-70 years with long-standing (≥8 years) UC, in stable clinical remission (simple clinical colitis activity index; SCCAI=0), and FC levels higher than 150 μg/g (53). Exclusion criteria are (1) recent use of steroids (<2 months) or other experimental drugs (<3 months); (2) concomitant use of anticoagulants; (3) probiotic use; (4) pregnancy or breast-feeding; (5) known or suspected hypersensitivity to eicosapentaenoic acid or ω-3 PUF As; and (6) severe co-morbidities. […] Adherence to EPA-FFA supplementation is evaluated both by capsule counting and assessing EPA incorporation into red blood cell (RBC) membranes. […]
Membrane fatty acids content is measured in RBCs. […] Extracted fatty acid methyl-esters are then analyzed by gas-chromatography mass-spectrometry (GC-MS). Fatty acid levels are expressed as relative percentages of total fatty acids.

[1] = short-term EPA-FFA supplementation, long-standing UC patients

EPA in RBC-purified membranes (UC patients, 2 g/day EPA-FFA for 90 days): significant increase
EPA and overall ω-3 PUFAs content (EPA, DPA and DHA) into RBCs [1]: increase
patients who incorporated EPA into RBCs [1]: 17/19
Structure (SMILES): CC/C=C\C/C=C\C/C=C\C/C=C\C/C=C\CCCC(=O)O [EPA-FFA, eicosapentaenoic acid]
